Laboratory results reported in ChEMBL document CHEMBL5316287 (J Med Chem, 2023).

Key:
[1] = Metabolic stability in human liver microsomes assessed as intrinsic clearance at 1 uM; type: ADME, Microsome
[2] = Metabolic stability in mouse liver microsomes assessed as intrinsic clearance at 1 uM; type: ADME, Microsome
[3] = 1-Octanol/PBS partition coefficient, logD of the compound at pH 7.4 incubated for 30 mins by shake flask technique based HPLC-LC/MS analysis; type: physicochemical
[4] = molecular target: T1, Histone acetyltransferase p300 (Homo sapiens, UniProt Q09472); experiment: Inhibition of EP300 in human LK2 cells assessed as reduction in intracellular H3K27 acetylation incubated for 3 hrs by chemiluminescence based ELISA; type: cell-based
T1 sequence (Q09472 whole entry): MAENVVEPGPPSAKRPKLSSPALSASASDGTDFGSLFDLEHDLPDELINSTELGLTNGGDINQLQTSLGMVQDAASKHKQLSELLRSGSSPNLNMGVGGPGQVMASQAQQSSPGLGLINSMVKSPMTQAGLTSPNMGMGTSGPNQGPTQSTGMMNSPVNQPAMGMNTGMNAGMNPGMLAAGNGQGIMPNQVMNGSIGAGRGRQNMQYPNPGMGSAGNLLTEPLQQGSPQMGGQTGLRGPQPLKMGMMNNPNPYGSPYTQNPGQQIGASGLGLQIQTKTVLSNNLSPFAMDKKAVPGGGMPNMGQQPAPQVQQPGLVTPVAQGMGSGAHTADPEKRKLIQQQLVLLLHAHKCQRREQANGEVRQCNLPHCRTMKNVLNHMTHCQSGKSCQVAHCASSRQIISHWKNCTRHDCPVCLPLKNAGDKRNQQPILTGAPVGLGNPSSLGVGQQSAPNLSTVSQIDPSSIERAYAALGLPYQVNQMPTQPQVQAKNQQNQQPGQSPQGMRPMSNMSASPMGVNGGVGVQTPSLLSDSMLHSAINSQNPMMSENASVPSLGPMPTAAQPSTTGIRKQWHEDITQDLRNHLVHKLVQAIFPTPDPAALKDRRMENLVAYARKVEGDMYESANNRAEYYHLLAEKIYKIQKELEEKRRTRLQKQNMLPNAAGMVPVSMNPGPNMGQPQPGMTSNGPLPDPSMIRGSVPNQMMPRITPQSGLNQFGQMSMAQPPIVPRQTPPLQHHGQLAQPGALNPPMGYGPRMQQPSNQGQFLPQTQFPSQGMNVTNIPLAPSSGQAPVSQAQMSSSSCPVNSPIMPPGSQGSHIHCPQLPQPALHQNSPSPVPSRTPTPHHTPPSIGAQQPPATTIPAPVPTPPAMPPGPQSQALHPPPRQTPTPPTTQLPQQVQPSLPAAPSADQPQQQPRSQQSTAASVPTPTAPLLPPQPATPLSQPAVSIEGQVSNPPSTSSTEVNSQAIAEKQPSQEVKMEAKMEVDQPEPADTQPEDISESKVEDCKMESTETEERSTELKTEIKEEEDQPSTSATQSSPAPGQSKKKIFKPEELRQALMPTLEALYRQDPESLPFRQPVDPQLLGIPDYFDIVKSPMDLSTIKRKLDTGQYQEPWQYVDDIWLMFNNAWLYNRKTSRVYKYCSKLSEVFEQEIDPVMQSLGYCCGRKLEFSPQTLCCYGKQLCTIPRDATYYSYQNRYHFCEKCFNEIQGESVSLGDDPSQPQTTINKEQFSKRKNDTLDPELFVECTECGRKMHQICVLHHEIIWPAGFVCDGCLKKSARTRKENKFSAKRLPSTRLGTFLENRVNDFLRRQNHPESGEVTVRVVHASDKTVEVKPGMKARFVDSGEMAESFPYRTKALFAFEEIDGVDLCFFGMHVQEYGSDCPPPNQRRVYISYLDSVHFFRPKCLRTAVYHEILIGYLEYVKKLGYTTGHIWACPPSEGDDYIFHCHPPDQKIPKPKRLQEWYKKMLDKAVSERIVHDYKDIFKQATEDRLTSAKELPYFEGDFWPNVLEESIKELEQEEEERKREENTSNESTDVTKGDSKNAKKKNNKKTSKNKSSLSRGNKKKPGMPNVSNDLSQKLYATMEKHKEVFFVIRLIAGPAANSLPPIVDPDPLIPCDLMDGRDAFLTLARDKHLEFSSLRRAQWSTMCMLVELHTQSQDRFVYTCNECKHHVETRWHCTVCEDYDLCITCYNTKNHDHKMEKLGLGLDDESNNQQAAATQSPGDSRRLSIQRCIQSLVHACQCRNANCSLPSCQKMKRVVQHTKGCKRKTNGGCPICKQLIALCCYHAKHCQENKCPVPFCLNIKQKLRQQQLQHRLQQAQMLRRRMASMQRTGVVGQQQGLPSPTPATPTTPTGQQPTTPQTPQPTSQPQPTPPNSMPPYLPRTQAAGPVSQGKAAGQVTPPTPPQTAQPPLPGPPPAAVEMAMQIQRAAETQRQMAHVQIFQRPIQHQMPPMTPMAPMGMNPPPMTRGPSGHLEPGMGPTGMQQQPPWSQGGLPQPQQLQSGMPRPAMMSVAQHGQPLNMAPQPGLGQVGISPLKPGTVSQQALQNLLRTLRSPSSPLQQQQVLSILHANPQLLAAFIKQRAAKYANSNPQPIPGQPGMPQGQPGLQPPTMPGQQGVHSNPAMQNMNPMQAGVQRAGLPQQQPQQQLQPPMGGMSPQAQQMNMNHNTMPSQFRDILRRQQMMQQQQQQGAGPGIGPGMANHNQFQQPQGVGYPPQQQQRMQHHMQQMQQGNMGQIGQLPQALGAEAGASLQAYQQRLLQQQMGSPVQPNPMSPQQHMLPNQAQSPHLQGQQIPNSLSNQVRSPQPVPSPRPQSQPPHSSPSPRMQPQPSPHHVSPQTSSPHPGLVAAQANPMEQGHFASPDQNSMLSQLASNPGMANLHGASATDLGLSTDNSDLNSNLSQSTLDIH

[5] = molecular target: T1, Histone acetyltransferase p300; experiment: Inhibition of recombinant human full length EP300 assessed as inhibition of H4 peptide acetylation using biotinylated H4 peptide as substrate in presence of Acetyl-CoA incubated for 60 mins by TR-FRET assay
[6] = Cmax in BALB/cAnNCrlCrlj mouse at 10 mg/kg,po; type: ADME, organism-based; parameters: dose 10 mg/kg, route po; settings: in vivo
[7] = Half life in BALB/cAnNCrlCrlj mouse at 10 mg/kg,po; type: ADME, organism-based; settings: in vivo
[8] = Unbound AUC in BALB/cAnNCrlCrlj mouse at 10 mg/kg,po; type: ADME, organism-based; settings: in vivo
[9] = Volume of distribution at steady state in BALB/cAnNCrlCrlj mouse at 2 mg/kg,iv administered as DMA/Tween80/saline (1:1:8 ratio) solution; type: ADME, organism-based; settings: in vivo, read-out: Vdss
[10] = Unbound clearance in BALB/cAnNCrlCrlj mouse at 2 mg/kg,iv administered as DMA/Tween80/saline (1:1:8 ratio) solution; type: ADME, organism-based; settings: in vivo
[11] = AUC in BALB/cAnNCrlCrlj mouse at 10 mg/kg,po; type: ADME, organism-based; parameters: dose 10 mg/kg, route po; settings: in vivo
[12] = Oral bioavailability in BALB/cAnNCrlCrlj mouse at 10 mg/kg; type: ADME, organism-based; settings: in vivo; for F: po, 10 mg/kg
[13] = Unbound clearance in BALB/cAnNCrlCrlj mouse at 1 mg/kg,iv administered as DMS0/10% SBE-7-betaCD (1:9 ratio) solution; type: ADME, organism-based; settings: in vivo
[14] = Volume of distribution at steady state in BALB/cAnNCrlCrlj mouse at 1 mg/kg,iv administered as DMS0/10% SBE-7-betaCD (1:9 ratio) solution; type: ADME, organism-based; settings: in vivo, read-out: Vdss
[15] = Unbound clearance in BALB/cAnNCrlCrlj mouse at 1 mg/kg,iv administered as DMA/Tween80/saline (1:1:8 ratio) solution; type: ADME, organism-based; settings: in vivo
[16] = Clearance in BALB/cAnNCrlCrlj mouse at 1 mg/kg,iv administered as DMA/Tween80/saline (1:1:8 ratio) solution; type: ADME, organism-based; settings: in vivo
[17] = Volume of distribution at steady state in BALB/cAnNCrlCrlj mouse at 1 mg/kg,iv administered as DMA/Tween80/saline (1:1:8 ratio) solution; type: ADME, organism-based; settings: in vivo, read-out: Vdss
[18] = BALB/cAnNCrlCrlj, read-out: AUC

Compound	intrinsic clearance [1] [µL/min/mg]	intrinsic clearance (CLint) [2] [µL/min/mg]	logD at 0.5 h [3]	IC50 [4] [nM]	Cmax [6] [nM]	half-life [7] [h]	also measured
COc1ccc(C2(C(=O)N3C[C@H](F)C[C@@H]3C(=O)Nc3ccc4[nH]ncc4n3)CCCCC2)cn1	110	160	2.3	15			
COc1ccc(C2(C(=O)N3CCC[C@@H]3C(=O)Nc3ccc4[nH]ncc4n3)CCCC2)cc1				52			IC50 [5]: 24 nM
COc1ccc(C(C)(C)C(=O)N2C[C@H](F)C[C@@H]2C(=O)Nc2ccc3[nH]ncc3n2)cc1	10	380	1.9	77			
COc1c(F)cc(C2(C(=O)N3C[C@H](F)C[C@@H]3C(=O)Nc3ccc4[nH]ncc4n3)CCC(F)(F)CC2)cc1F	60		3.2	142			
COc1ccc(C2(C(=O)N3CCOCC(Cc4cccc5[nH]ncc45)C3)CCCC2)cc1 (stereo not given)					80	2	fAUC [8]: 0.006 µM·h; Vd [9]: 1.76 L/kg; CL free [10]: 1740 mL/min/kg; AUC [11]: 0.1 µM·h; F [12]: 31%
COc1ccc(C2(C(=O)N3C[C@H](O)C[C@@H]3C(=O)Nc3ccc4[nH]ncc4n3)CCCCC2)cc1				106			IC50 [5]: 50 nM
COc1ccc(C2(C(=O)N3CCC[C@@H]3C(=O)Nc3cccc4[nH]ncc34)CCCC2)cc1					320	0.6	fAUC [8]: 0.029 µM·h; AUC [11, 18]: 0.42 µM·h
COc1ccc(C2(C(=O)N3C[C@H](F)C[C@@H]3C(=O)Nc3ccc4[nH]ncc4n3)CC(F)(F)C2)cc1	40	120	2.1	20	1610	2.1	fAUC [8]: 0.268 µM·h; AUC [11, 18]: 2.29 µM·h
O=C(Nc1ccc2[nH]ncc2n1)[C@H]1C[C@@H](F)CN1C(=O)C1(c2ccc(O)cc2)CCCCC1	140		2.7	13	340	2.8	AUC [11, 18]: 0.87 µM·h
CS(=O)(=O)c1ccc(C2(C(=O)N3C[C@H](F)C[C@@H]3C(=O)Nc3ccc4[nH]ncc4n3)CCC(F)(F)CC2)cc1			1.6	95	90	1.5	AUC [11, 18]: 0.23 µM·h; IC50 [5]: 55 nM
COc1ccc(C2(C(=O)N3C[C@H](F)C[C@@H]3C(=O)Nc3ccc4[nH]ncc4n3)CCC(F)(F)CC2)cc1F	40		3	57			IC50 [5]: 36 nM
COc1ccc(C2(C(=O)N3CCC[C@@H]3C(=O)Nc3ccc4cn[nH]c4c3)CCCC2)cc1				2790			IC50 [5]: 500 nM
COc1ccc(C2(C(=O)N3CCC[C@@H]3C(=O)Nc3ccc4[nH]ncc4c3)CCCC2)cc1				916			
COc1ccc(C2(C(=O)N3CS(=O)(=O)C[C@@H]3C(=O)Nc3ccc4[nH]ncc4n3)CCCCC2)cc1				27			
COc1ccc(C2(C(=O)N3C[C@H](F)C[C@@H]3C(=O)Nc3ccc4[nH]ncc4n3)CCOCC2)cc1	10	50	1.6	101			
COc1ccc(C2(C(=O)N3CCC[C@@H]3C(=O)Nc3cccc4[nH]ccc34)CCCC2)cc1				304			
COc1ccc(C2(C(=O)N3C[C@H](F)C[C@@H]3C(=O)Nc3ccc4[nH]ncc4n3)CCCCC2)cc1	310	770	3.1		10800	1.4	CL free [13]: 133 mL/min/kg; fAUC [8]: 0.6 µM·h; Vd [14]: 0.29 L/kg; AUC [11]: 15 µM·h; F [12]: 2.2%
COc1ccc(C2(C(=O)N3CCC[C@@H]3C(=O)Nc3ccc4[nH]ccc4c3)CCCC2)cc1				709			
O=C(Nc1ccc2[nH]ncc2n1)[C@H]1C[C@@H](F)CN1C(=O)C1(c2ccc(C(=O)C(F)(F)F)cc2)CCCCC1	150	380	3.4	21			
COc1ccc(C2(C(=O)N3C[C@H](F)C[C@@H]3C(=O)Nc3ccc4[nH]ncc4n3)CCCCC2)cc1F	230	400	3.1	16	12700	1.2	CL free [15]: 76 mL/min/kg; fAUC [8]: 1.39 µM·h; clearance [16]: 6.3 mL/min/kg; Vd [17]: 0.15 L/kg; AUC [11, 18]: 16.8 µM·h; bioavailability ([12]; BALB/cAnNCrlCrlj): 62%
COc1ccc(C2(C(=O)N3C[C@H](F)C[C@@H]3C(=O)Nc3ccc4[nH]ncc4n3)CC(C)(C)C2)cc1	100	240	3.1	53			
